Experimental data published in ChEMBL document CHEMBL1240349, “Influence of tigecycline on expression of virulence factors in biofilm-associated cells of methicillin-resistant Staphylococcus aureus” (2010).

Columns and labels:
Format in all cases: functional
Staphylococcus aureus [1] = assay: Increase in fnbA gene expression in biofilm-associated cells of epidemic methicillin-resistant Staphylococcus aureus isolate 16 at 4 times MIC incubated for 1 hr by whole genome microarray relative to untreated control
Staphylococcus aureus [2] = assay: Decrease in capD gene expression in biofilm-associated cells of epidemic methicillin-resistant Staphylococcus aureus isolate 16 at 4 times MIC incubated for 1 hr by whole genome microarray relative to untreated control
Staphylococcus aureus [3] = assay: Increase in infB gene expression in biofilm-associated cells of epidemic methicillin-resistant Staphylococcus aureus isolate 16 at 4 times MIC incubated for 1 hr by whole genome microarray relative to untreated control
Staphylococcus aureus [4] = assay: Increase in infC gene expression in biofilm-associated cells of epidemic methicillin-resistant Staphylococcus aureus isolate 16 at 4 times MIC incubated for 1 hr by whole genome microarray relative to untreated control
Staphylococcus aureus [5] = assay: Increase in rpmI gene expression in biofilm-associated cells of epidemic methicillin-resistant Staphylococcus aureus isolate 16 at 4 times MIC incubated for 1 hr by whole genome microarray relative to untreated control
Staphylococcus aureus [6] = assay: Increase in rpsE gene expression in biofilm-associated cells of epidemic methicillin-resistant Staphylococcus aureus isolate 16 at 4 times MIC incubated for 1 hr by whole genome microarray relative to untreated control
Staphylococcus aureus [7] = assay: Increase in rpsH gene expression in biofilm-associated cells of epidemic methicillin-resistant Staphylococcus aureus isolate 16 at 4 times MIC incubated for 1 hr by whole genome microarray relative to untreated control
Staphylococcus aureus [8] = assay: Decrease in asp23 gene expression in biofilm-associated cells of epidemic methicillin-resistant Staphylococcus aureus isolate 16 at 4 times MIC incubated for 1 hr by whole genome microarray relative to untreated control
Staphylococcus aureus [9] = assay: Increase in cspB gene expression in biofilm-associated cells of epidemic methicillin-resistant Staphylococcus aureus isolate 16 at 4 times MIC incubated for 1 hr by whole genome microarray relative to untreated control
Staphylococcus aureus [10] = assay: Decrease in capG gene expression in biofilm-associated cells of epidemic methicillin-resistant Staphylococcus aureus isolate 16 at 4 times MIC incubated for 1 hr by RT-PCR relative to untreated control
Staphylococcus aureus [11] = assay: Decrease in capC gene expression in biofilm-associated cells of epidemic methicillin-resistant Staphylococcus aureus isolate 16 at 4 times MIC incubated for 1 hr by RT-PCR relative to untreated control
Staphylococcus aureus [12] = assay: Increase in fnbB gene expression in biofilm-associated cells of epidemic methicillin-resistant Staphylococcus aureus isolate 16 at 4 times MIC incubated for 1 hr by RT-PCR relative to untreated control
Staphylococcus aureus [13] = assay: Increase in clfB gene expression in biofilm-associated cells of epidemic methicillin-resistant Staphylococcus aureus isolate 16 at 4 times MIC incubated for 1 hr by RT-PCR relative to untreated control
Staphylococcus aureus [14] = assay: Increase in isaA gene expression in biofilm-associated cells of epidemic methicillin-resistant Staphylococcus aureus isolate 16 at 4 times MIC incubated for 1 hr by RT-PCR relative to untreated control
Staphylococcus aureus [15] = assay: Increase in mnhG gene expression in biofilm-associated cells of epidemic methicillin-resistant Staphylococcus aureus isolate 16 at 4 times MIC incubated for 1 hr by RT-PCR relative to untreated control
Staphylococcus aureus [16] = assay: Decrease in sodA gene expression in biofilm-associated cells of epidemic methicillin-resistant Staphylococcus aureus isolate 16 at 4 times MIC incubated for 1 hr by whole genome microarray relative to untreated control
Staphylococcus aureus [17] = assay: Increase in gapR gene expression in biofilm-associated cells of epidemic methicillin-resistant Staphylococcus aureus isolate 16 at 4 times MIC incubated for 1 hr by whole genome microarray relative to untreated control
Staphylococcus aureus [18] = assay: Increase in recU gene expression in biofilm-associated cells of epidemic methicillin-resistant Staphylococcus aureus isolate 16 at 4 times MIC incubated for 1 hr by whole genome microarray relative to untreated control
Staphylococcus aureus [19] = assay: Increase in pbp2 gene expression in biofilm-associated cells of epidemic methicillin-resistant Staphylococcus aureus isolate 16 at 4 times MIC incubated for 1 hr by whole genome microarray relative to untreated control
Staphylococcus aureus [20] = assay: Increase in dltC gene expression in biofilm-associated cells of epidemic methicillin-resistant Staphylococcus aureus isolate 16 at 4 times MIC incubated for 1 hr by whole genome microarray relative to untreated control
Staphylococcus aureus [21] = assay: Increase in sstD gene expression in biofilm-associated cells of epidemic methicillin-resistant Staphylococcus aureus isolate 16 at 4 times MIC incubated for 1 hr by whole genome microarray relative to untreated control
Staphylococcus aureus [22] = assay: Decrease in sdrD gene expression in biofilm-associated cells of epidemic methicillin-resistant Staphylococcus aureus isolate 16 at 4 times MIC incubated for 1 hr by whole genome microarray relative to untreated control
Staphylococcus aureus [23] = assay: Decrease in sasF gene expression in biofilm-associated cells of epidemic methicillin-resistant Staphylococcus aureus isolate 16 at 4 times MIC incubated for 1 hr by whole genome microarray relative to untreated control
Staphylococcus aureus [24] = assay: Increase in mnhG expression in biofilm-associated cells of epidemic methicillin-resistant Staphylococcus aureus isolate 16-1 at 4 times MIC incubated for 1 hr by RT-PCR relative to untreated control
Staphylococcus aureus [25] = assay: Increase in ssaA expression in biofilm-associated cells of epidemic methicillin-resistant Staphylococcus aureus isolate 16-1 at 4 times MIC incubated for 1 hr by RT-PCR relative to untreated control
Staphylococcus aureus [26] = assay: Decrease in tst expression in biofilm-associated cells of epidemic methicillin-resistant Staphylococcus aureus isolate 16-1 at 4 times MIC incubated for 1 hr by RT-PCR relative to untreated control
Staphylococcus aureus [27] = assay: Decrease in capG expression in biofilm-associated cells of epidemic methicillin-resistant Staphylococcus aureus isolate 16-2 at 4 times MIC incubated for 1 hr by RT-PCR relative to untreated control
Staphylococcus aureus [28] = assay: Decrease in clpC expression in biofilm-associated cells of epidemic methicillin-resistant Staphylococcus aureus isolate 16-2 at 4 times MIC incubated for 1 hr by RT-PCR relative to untreated control
Staphylococcus aureus [29] = assay: Increase in icaC expression in biofilm-associated cells of epidemic methicillin-resistant Staphylococcus aureus isolate 16-2 at 4 times MIC incubated for 1 hr by RT-PCR relative to untreated control
Staphylococcus aureus [30] = assay: Increase in isaA expression in biofilm-associated cells of epidemic methicillin-resistant Staphylococcus aureus isolate 16-2 at 4 times MIC incubated for 1 hr by RT-PCR relative to untreated control
Staphylococcus aureus [31] = assay: Decrease in mnhG expression in biofilm-associated cells of epidemic methicillin-resistant Staphylococcus aureus isolate 16-2 at 4 times MIC incubated for 1 hr by RT-PCR relative to untreated control
Staphylococcus aureus [32] = assay: Increase in fnbB expression in biofilm-associated cells of epidemic methicillin-resistant Staphylococcus aureus isolate 15 at 4 times MIC incubated for 1 hr by RT-PCR relative to untreated control
Staphylococcus aureus [33] = assay: Increase in isaA expression in biofilm-associated cells of epidemic methicillin-resistant Staphylococcus aureus isolate 15 at 4 times MIC incubated for 1 hr by RT-PCR relative to untreated control
Staphylococcus aureus [34] = assay: Decrease in mnhG expression in biofilm-associated cells of epidemic methicillin-resistant Staphylococcus aureus isolate 15 at 4 times MIC incubated for 1 hr by RT-PCR relative to untreated control

## CN(C)c1cc(NC(=O)CNC(C)(C)C)c(O)c2c1C[C@H]1C[C@H]3[C@H](N(C)C)C(O)=C(C(N)=O)C(=O)[C@@]3(O)C(O)=C1C2=O [TIGECYCLINE]
Staphylococcus aureus [1]
  fold change (FC): 2.3
Staphylococcus aureus [2]
  fold change (FC): 2.19
Staphylococcus aureus [3]
  fold change (FC): 2.35
Staphylococcus aureus [4]
  fold change (FC): 6.29
Staphylococcus aureus [5]
  fold change (FC): 10.51
Staphylococcus aureus [6]
  fold change (FC): 11.01
Staphylococcus aureus [7]
  fold change (FC): 14.86
Staphylococcus aureus [8]
  fold change (FC): 8.61
Staphylococcus aureus [9]
  fold change (FC): 5.59
Staphylococcus aureus [10]
  fold change (FC): 1.01
Staphylococcus aureus [11]
  fold change (FC): 1.75
Staphylococcus aureus [12]
  fold change (FC): 3.03
Staphylococcus aureus [13]
  fold change (FC): 7.5
Staphylococcus aureus [14]
  fold change (FC): 7.68
Staphylococcus aureus [15]
  fold change (FC): 5.16
Staphylococcus aureus [16]
  fold change (FC): 2.59
Staphylococcus aureus [17]
  fold change (FC): 9.12
Staphylococcus aureus [18]
  fold change (FC): 4.38
Staphylococcus aureus [19]
  fold change (FC): 3.91
Staphylococcus aureus [20]
  fold change (FC): 2.29
Staphylococcus aureus [21]
  fold change (FC): 3.27
Staphylococcus aureus [22]
  fold change (FC): 2.46
Staphylococcus aureus [23]
  fold change (FC): 2.3
Staphylococcus aureus [24]
  fold change (FC): 5.16
Staphylococcus aureus [25]
  fold change (FC): 2.04
Staphylococcus aureus [26]
  fold change (FC): 1.51
Staphylococcus aureus [27]
  fold change (FC): 1.96
Staphylococcus aureus [28]
  fold change (FC): 19.87
Staphylococcus aureus [29]
  fold change (FC): 1.6
Staphylococcus aureus [30]
  fold change (FC): 3.7
Staphylococcus aureus [31]
  fold change (FC): 6.99
Staphylococcus aureus [32]
  fold change (FC): 1.22
Staphylococcus aureus [33]
  fold change (FC): 1.09
Staphylococcus aureus [34]
  fold change (FC): 1.64
